From patent publication US7704994B2, “Benzazepine derivatives for the treatment of neurological disorders” (Glaxo Group Limited, priority 2002, dated 2010)
“And” between values parts separate entries of the source, which are not always exact repeats. Identical values can stand only once. Like-named read-outs stand apart in the source and are kept apart here.

Target: T1, human histamine H3 receptor (Homo sapiens, UniProt Q9Y5N1)
T1 construct: expressed in transfected cells; host or cells: CHO K1 cells carrying pSwitch, transfected with pGeneH3 and induced with mifepristone; membranes of clone 3H3
T1 sequence (Q9Y5N1 whole entry): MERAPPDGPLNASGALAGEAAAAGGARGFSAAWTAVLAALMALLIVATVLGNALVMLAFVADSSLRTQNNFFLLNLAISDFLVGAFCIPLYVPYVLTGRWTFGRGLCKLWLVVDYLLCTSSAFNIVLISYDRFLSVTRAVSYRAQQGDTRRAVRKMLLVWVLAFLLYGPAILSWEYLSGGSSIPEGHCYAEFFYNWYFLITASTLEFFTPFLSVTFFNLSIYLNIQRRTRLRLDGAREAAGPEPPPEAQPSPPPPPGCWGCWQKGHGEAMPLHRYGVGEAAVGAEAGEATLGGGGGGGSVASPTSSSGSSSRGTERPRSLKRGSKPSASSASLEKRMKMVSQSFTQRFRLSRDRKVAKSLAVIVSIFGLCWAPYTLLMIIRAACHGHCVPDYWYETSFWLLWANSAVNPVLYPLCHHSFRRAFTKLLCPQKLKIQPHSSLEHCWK
Assay: Histamine H3 functional antagonist assay
Format: biochemical
Protocol: A membrane preparation containing histamine H3 receptors may be prepared in accordance with the following procedures:
Ligated DNA was transformed into competent DH5α E. coli host bacterial cells and plated onto Luria Broth (LB) agar containing Zeocin™ (an antibiotic which allows the selection of cells expressing the sh ble gene which is present on pGene and pSwitch) at 50 μg ml^−1. Colonies containing the re-ligated plasmid were identified by restriction analysis. DNA for transfection into mammalian cells was prepared from 250 ml cultures of the host bacterium containing the pGeneH3 plasmid and isolated using a DNA preparation kit (Qiagen Midi-Prep) as per manufacturers guidelines (Qiagen).
CHO K1 cells previously transfected with the pSwitch regulatory plasmid (InVitrogen) were seeded at 2×10e6 cells per T75 flask in Complete Medium, containing Hams F12 (GIBCOBRL, Life Technologies) medium supplemented with 10% v/v dialysed foetal bovine serum, L-glutamine, and hygromycin (100 μg ml^−1), 24 hours prior to use. Plasmid DNA was transfected into the cells using Lipofectamine plus according to the manufacturers guidelines (InVitrogen). 48 hours post transfection cells were placed into complete medium supplemented with 500 μg ml^−1 Zeocin™.
10-14 days post selection 10 nM Mifepristone (InVitrogen), was added to the culture medium to induce the expression of the receptor. […] Approximately 1×10e7 cells were examined for receptor expression by staining with a rabbit polyclonal antibody, 4a, raised against the N-terminal domain of the histamine H3 receptor, incubated on ice for 60 minutes, followed by two washes in sorting medium. […] Following two further washes with Sorting Medium, cells were filtered through a 50 μm Filcon™ (BD Biosciences) and then analysed on a FACS Vantage SE Flow Cytometer fitted with an Automatic Cell Deposition Unit. […] Positively stained cells were sorted as single cells into 96-well plates, containing Complete Medium containing 500 μg ml^−1 Zeocin™ and allowed to expand before reanalysis for receptor expression via antibody and ligand binding studies.
All steps of the protocol are carried out at 4° C. and with pre-cooled reagents. […] The cells are then homogenised by 2×15 second bursts in a 1 litre glass Waring blender, followed by centrifugation at 500 g for 20 minutes. The supernatant is then spun at 48,000 g for 30 minutes. […]
The plate is then incubated on a shaker at room temperature for 30 minutes followed by centrifugation for 5 minutes at 1500 rpm. The plate is read between 3 and 6 hours after completion of centrifuge run in a Wallac Microbeta counter on a 1 minute normalised tritium count protocol. Data is analysed using a 4-parameter logistic equation. […]

[1] = membranes of CHO K1 cells expressing human histamine H3, [35S]GTPγS SPA, histamine 0.3 μM, read-out: antagonism (pKb) (converted)

Compound `c1ccc(COc2ccc3c(c2)CCN(C2CCC2)CC3)cc1` [Example 1, 7-Benzyloxy-3-cyclobutyl-2,3,4,5-tetrahydro-1H-benzo[d]azepine] has a Kb of 31.6 to 1000 pM.
`O=C(N1CCOCC1)N1CCC(Oc2ccc3c(c2)CCN(C2CCC2)CC3)CC1` [Example 52] was tested, and the Kb [1] was 31.6 to 1000 pM.
`CNC(=O)c1ccc(Oc2ccc3c(c2)CCN(C2CCC2)CC3)nc1` [Example 121, 6-(3-Cyclobutyl-2,3,4,5-tetrahydro-1H-benzo[d]azepin-7-yloxy)-N-methyl-nicotinamide] was tested, and the Kb [1] was 31.6 to 1000 pM and < 316 pM.
With `O=C1CCCN1c1ccc(Oc2ccc3c(c2)CCN(C2CCC2)CC3)nc1` [Example 217, 1-{6-[(3-Cyclobutyl-2,3,4,5-tetrahydro-1H-3-benzazepin-7-yl)oxy]-3-pyridinyl}-2-pyrrolidinone] the Kb [1] was 31.6 to 1000 pM.
